The values below come from article PMC3731256, “Optimization of Substituted 6-Salicyl-4-Anilinoquinazoline Derivatives as Dual EGFR/HER2 Tyrosine Kinase Inhibitors” (PLoS ONE, 2013).

The structures appear in SMILES notation.

In assay [1] the test system is H1781 cells. The assay is described as follows: Antiproliferation WST-1 assay, H1781. Type of assay: cell-based. Particulars: NCI-H1781, NSCLC, HER-2 G776ins V_G/C, lapatinib-resistant. The method, then:
(§1) WST-1 is better than MTT for analyzing cell proliferation, because it can be reduced to soluble formazan by dehydrogenase in mitochondria and has little toxicity to cells. Cell proliferation was determined using WST-1 dye (Beyotime Inst Biotech, China) according to manufacture’s instructions. Brieﬂy, 5 × 10^3 cells per well were seeded in a 96-well plate, grown at 37 ℃ for 24 h, and then placed in serum-starved conditions for a further 6 h. Subsequently, cells were treated with compounds (Table 1) at increasing concentrations in the presence of 10% FBS for 24 or 48h. After 10 µL WST-1 dye was added to each well, cells were incubated at 37 ℃ for 2 h and the absorbance was ﬁnally determined at 450 nm using a microplate reader.

For assay [2], the target named is T1, Aurora A (Homo sapiens, UniProt O14965).
T1 construct: 6xHis (N); made in house; host or cells: baculovirus expression system
T1 sequence (O14965 1-403): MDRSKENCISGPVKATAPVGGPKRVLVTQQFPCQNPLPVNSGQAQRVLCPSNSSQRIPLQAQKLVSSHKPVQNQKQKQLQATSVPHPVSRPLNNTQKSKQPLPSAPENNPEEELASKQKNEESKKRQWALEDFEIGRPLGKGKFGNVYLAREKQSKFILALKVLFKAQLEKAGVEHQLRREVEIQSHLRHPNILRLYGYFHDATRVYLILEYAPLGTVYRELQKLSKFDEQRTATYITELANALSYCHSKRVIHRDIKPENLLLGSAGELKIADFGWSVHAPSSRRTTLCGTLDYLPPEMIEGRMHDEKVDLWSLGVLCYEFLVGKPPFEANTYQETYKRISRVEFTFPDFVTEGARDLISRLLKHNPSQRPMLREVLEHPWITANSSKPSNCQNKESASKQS
The assay is described as follows: Serine/threonine kinase profiling ([γ-32P] ATP), Aurora A. Particulars: ATP concentration = Km. Type of assay: biochemical. The method, then: (§2) Assays for 4 serine/threonine kinases using radio labeled [γ-^32P] ATP (GE Healthcare, Piscataway, NJ) were performed in 96 well plates. Mitogen-activated protein kinase p38α (p38α), was expressed as N-terminal FLAG-tagged protein using a baculovirus expression system. Aurora-A and -B were expressed as N-terminal 6xHis tagged protein using a baculovirus expression system. CDK2/CycA was expressed as C-terminal 6His-tagged CDK2, and N-terminal GST-tagged Cyclin A protein using a baculovirus expression system.
(§3) The reaction conditions were optimized for each kinase: p38α (100 ng/well of enzyme, 1 μg/well of MBP (Wako Pure Chemical Ind., Osaka, Japan), 0.1 μCi/well of [γ-^32P] ATP, 60 min reaction at 30 ℃); Aurora-A and -B (50 ng/well of enzyme, 30 μM of Aurora substrate peptide, 0.2 μCi/well of [γ-^32P] ATP, 60 min reaction at room temperature); CDK2/CycA (1.8 mUnits/well of enzyme, 1 μg/well of Histone H1 (Calbiochem), 0.2 μCi/well of [γ-^32P] ATP, 20 min reaction at room temperature).
(§4) All the four enzyme reactions were performed in 25 mM HEPES, pH 7.5, 10 mM magnesium acetate, 1 mM dithiothreitol and 0.5 μM ATP containing optimized concentration of enzyme, substrate and radiolabeled ATP as described above in a total volume of 50 μl. […] The radioactivity was counted by a TopCount scintillation counter (PerkinElmer).

Assay [3] has as its system A549 cells. The assay is described as follows: Antiproliferation WST-1 assay, A549. Type of assay: cell-based, human. The settings on record: WST-1 assay; A549 carcinomic human alveolar basal epithelial cell; read-out: Cellular IC50, A549. The method, then: as §1
The subject of assay [4] is MDA-MB-453 cells. Put plainly: Antiproliferation WST-1 assay, MDA-MB-453. Type of assay: cell-based. Particulars: Homo sapiens, breast cancer, HER-2++, PTEN deficiency. How it is done: as §1
The test system of assay [5] is H1975 cells. Put plainly: Antiproliferation WST-1 assay, H1975. In kind it is cell-based. Particulars: Homo sapiens, NCI-H1975, NSCLC, EGFR L858R/T790M. The method, then: as §1
Assay [6] concerns the target T2, CDK2/CycA (Homo sapiens, UniProt P24941).
T2 construct: 6His (C); made in house; host or cells: baculovirus expression system
Put plainly: Serine/threonine kinase profiling ([γ-32P] ATP), CDK2. Type of assay: biochemical. The method, then:
as §2, §3, §4

Assay [7] deals with T3, human HER2 (Homo sapiens, UniProt P04626).
T3 construct: The cytoplasmic domain (amino acids 676-1255) of human HER2; FLAG (DYKDDDD) (N); made in house
T3 sequence (P04626 676-1255): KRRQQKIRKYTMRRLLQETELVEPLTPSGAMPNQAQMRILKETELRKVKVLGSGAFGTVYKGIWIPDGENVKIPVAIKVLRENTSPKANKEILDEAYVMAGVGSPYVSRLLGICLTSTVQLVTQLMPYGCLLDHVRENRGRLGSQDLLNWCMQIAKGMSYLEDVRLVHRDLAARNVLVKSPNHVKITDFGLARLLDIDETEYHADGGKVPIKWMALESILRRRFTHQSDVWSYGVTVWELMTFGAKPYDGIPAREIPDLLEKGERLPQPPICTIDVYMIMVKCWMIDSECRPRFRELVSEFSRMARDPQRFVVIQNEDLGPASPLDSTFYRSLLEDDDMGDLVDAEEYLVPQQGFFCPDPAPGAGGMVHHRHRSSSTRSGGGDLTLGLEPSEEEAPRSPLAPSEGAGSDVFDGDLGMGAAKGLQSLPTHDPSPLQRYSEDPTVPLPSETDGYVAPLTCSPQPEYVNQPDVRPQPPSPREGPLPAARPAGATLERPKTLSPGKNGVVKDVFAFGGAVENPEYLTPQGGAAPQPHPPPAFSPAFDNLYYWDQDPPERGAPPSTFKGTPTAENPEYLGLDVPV
Put plainly: HER2 kinase assay ([γ-32P] ATP, poly-Glu-Tyr). Particulars: phosphorylation of poly-Glu-Tyr copolymer; mean, >1 determination; read-out: Enzyme activity IC50 against HER2 kinase. In kind it is biochemical. The method, then: The expressed HER2 kinase and EGFR kinase were purified by anti-FLAG M2 affinity gel (Sigma-Aldrich, USA). The HER2 and EGFR kinase assays were performed using radiolabeled [γ-^32P] ATP (GEHealthcare, USA) in 96-well plates. The kinase reactions were performed in 50 mmol/L Tris-HCl, pH7.5, 5 mmol/L MnCl2, 0.01% Tween-20 and 2 mmol/L DTT containing 0.9 μCi of [γ-^32P] ATP per reaction, 50 μmol/L ATP, 5 μg/mL poly-Glu-Tyr (4:1) and 0.25 μg/mL of purified Her2 or EGFR cytoplasmic domain in a total volume of 50 μL. […] Kinase reactions were initiated by adding ATP. After the kinase reaction incubated for 10 minutes at room temperature, reactions were terminated by the addition of 10% (final concentration) trichloroacetic acid. The [γ-^32P]-phosphorylated proteins were filtered in a harvest plate (Millipore, USA) with a cell harvester (PerkinElmer, USA) and washed free of [γ-^32P] ATP with 3% phosphoric acid. The plates were dried, followed by the addition of 25 μL of MicroScintO (PerkinElmer, USA). Radioactivity was counted by a Topcount scintillation counter (PerkinElmer, USA).

The test system of assay [8] is MCF-7 cells. Put plainly: Antiproliferation WST-1 assay, MCF-7. Type of assay: cell-based, human. The settings on record: Homo sapiens, MCF7, WST-1 assay; MCF-7 breast cancer, Her2/neu overexpression; read-out: Cellular IC50, MCF-7. How it is done: as §1

Turning to `O=C(Nc1ccc2ncnc(Nc3cccc(Br)c3)c2c1)c1ccc(C(F)(F)F)cc1O` [Compound 21, N-(4-(3-bromophenylamino)quinazolin-6-yl)-2-hydroxy-4-(trifluoromethyl)benzamide], the IC50 is 770 ± 34 nM in assay [1]; 58400 ± 780 nM in assay [2]; 1640 ± 27 nM in assay [3]; 920 ± 19 nM in assay [4]; 3300 ± 233 nM in assay [5]; 3500 nM in assay [6] (ATP concentration = Km). Moreover, the IC50 in assay [7] came to 96 ± 4 nM; in assay [8], 490 ± 18 nM. For the same molecule, the “pIC50 CDK2” value in assay [6] (converted from IC50 by online calculator) is 5.46.
